Consider 31 compounds from patent US8017791B2, “Tri-substituted 2-benzhydryl-5-benzylamino-tetrahydro-pyran-4-ol and 6-benzhydryl-4-benzylamino-tetrahydro-pyran-3-ol analogues, and novel, 3,6-disubstituted pyran derivatives” (Wayne State University, priority 2003, dated 2011).

Structures can show the parent of a compound that is named as a salt.

The first series deals with T1, DAT (Rattus norvegicus, UniProt P23977).
T1 construct: rat striatum was the source for DAT, and cerebral cortex for SERT and NET; from tissue; P2 synaptosomal fraction for uptake
T1 sequence (P23977 whole entry): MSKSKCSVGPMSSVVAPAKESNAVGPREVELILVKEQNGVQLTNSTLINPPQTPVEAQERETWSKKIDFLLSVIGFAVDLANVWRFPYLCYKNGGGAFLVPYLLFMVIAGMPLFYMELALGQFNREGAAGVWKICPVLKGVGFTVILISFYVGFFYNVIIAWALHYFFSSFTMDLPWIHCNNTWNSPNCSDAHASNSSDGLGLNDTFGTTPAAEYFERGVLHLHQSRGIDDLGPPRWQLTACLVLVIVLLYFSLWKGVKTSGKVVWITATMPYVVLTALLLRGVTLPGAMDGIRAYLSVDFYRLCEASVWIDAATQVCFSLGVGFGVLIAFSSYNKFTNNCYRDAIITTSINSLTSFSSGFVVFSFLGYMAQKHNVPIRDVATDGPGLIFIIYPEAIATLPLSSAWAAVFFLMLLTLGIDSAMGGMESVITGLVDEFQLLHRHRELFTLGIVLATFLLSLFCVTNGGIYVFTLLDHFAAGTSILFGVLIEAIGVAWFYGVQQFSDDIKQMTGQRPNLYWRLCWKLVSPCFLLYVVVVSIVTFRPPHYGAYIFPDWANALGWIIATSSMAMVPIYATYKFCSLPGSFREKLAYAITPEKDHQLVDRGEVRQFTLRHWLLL
As to the kind of experiment: Inhibition of [3H]WIN 35,428 binding to DAT.
Settings: not given
As to the method: (§1) Biology. […] Briefly, rat striatum was the source for DAT, and cerebral cortex for SERT and NET. […] Test compounds were dissolved in dimethyl sulfoxide (DMSO) and diluted out in 10% (v/v) DMSO. […] At least five triplicate concentrations of each test compound were studied, spaced evenly around the IC50 value. For DAT uptake assays, uptake of 50 nM [^3H]DA into rat striatal synaptosomes was measured exactly as described by us previously. Briefly, rat striatal P2 membrane fractions were incubated with test compounds for 8 min followed by the additional presence of [^3H]DA for 4 min at 25?. […] Construction of inhibition curves and dissolvement of test compounds were as described above.
For `N[C@H]1CC[C@@H](C(c2ccccc2)c2ccccc2)OC1` (relative stereo) [Compound 15, Cis-(6-benzhydryl-tetrahydropyran-3-yl)-amine], the “activity at DAT, in words” value is given as “little or no activity at the DAT”.

Staying with this series, now noted: Table 2; average ± SEM of three to eight experiments; read-out: DAT binding, IC50, [3H]Win 35,428.
With `N[C@H]1CC[C@@H](C(c2ccccc2)c2ccccc2)OC1` (relative stereo) [Compound 15, Cis-(6-benzhydryl-tetrahydropyran-3-yl)-amine], the IC50 – broadly, the concentration that inhibits the measured activity by half – is 777 ± 41 nM.

The series is the same for the next values; noted with them: Table 4; rat brain; read-out: DAT binding, IC50, [3H]Win 35,428.
For the compound `O[C@H]1C[C@H](C(c2ccccc2)c2ccccc2)OC[C@@H]1NCc1ccc2[nH]ccc2c1` [(+)-32b, (2R,4S,5S)-2-benzhydryl-5-[(1H-indol-5-ylmethyl)-amino]-tetrahydropyran-4-ol], the IC50 was 494 ± 96 nM.

The series is the same for the next values; noted with them: read-out: IC50 at the DAT.
With `COc1ccc(CN[C@H]2CC[C@@H](C(c3ccccc3)c3ccccc3)OC2)cc1` (relative stereo) [Compound 16e, Cis-(6-benzhydryl-tetrahydropyran-3-yl)-(4-methoxy-benzyl)-amine], the IC50 is 84 nM.

For the next series, the target named is T1, DAT. As to the kind of experiment: Inhibition of [3H]DA uptake by DAT into rat striatal synaptosomes. The series is classed as biochemical. The conditions noted are these: Table 2; average ± SEM; read-out: DAT uptake, IC50 [3H]DA. How it is done:
as §1
Regarding `N[C@H]1CC[C@@H](C(c2ccccc2)c2ccccc2)OC1` (relative stereo) [Compound 15, Cis-(6-benzhydryl-tetrahydropyran-3-yl)-amine], the IC50 amounted to 251 ± 31 nM.
On to `COc1ccc(CN[C@H]2CC[C@@H](C(c3ccccc3)c3ccccc3)OC2)cc1` (relative stereo) [Compound 16e, Cis-(6-benzhydryl-tetrahydropyran-3-yl)-(4-methoxy-benzyl)-amine], for which the IC50 came to 59.5 ± 11.6 nM.

The same series, now with this note: Table 3; ratio of IC50 values.
Turning to `N[C@H]1CC[C@@H](C(c2ccccc2)c2ccccc2)OC1` (relative stereo) [Compound 15, Cis-(6-benzhydryl-tetrahydropyran-3-yl)-amine], the “[3H]DA uptake/DAT binding” value is reported as 0.32.
For `COc1ccc(CN[C@H]2CC[C@@H](C(c3ccccc3)c3ccccc3)OC2)cc1` (relative stereo) [Compound 16e, Cis-(6-benzhydryl-tetrahydropyran-3-yl)-(4-methoxy-benzyl)-amine], the “[3H]DA uptake/DAT binding” value is on record as 0.71.

The same series, now with this note: Table 4; rat brain; read-out: DAT uptake, IC50 [3H]DA.
With `O[C@H]1C[C@H](C(c2ccccc2)c2ccccc2)OC[C@@H]1NCc1ccc2[nH]ccc2c1` [(+)-32b, (2R,4S,5S)-2-benzhydryl-5-[(1H-indol-5-ylmethyl)-amino]-tetrahydropyran-4-ol], the IC50 came out at 247 ± 21 nM.

Tested on in a further series: not given
Assay: not given
Settings: not given
As to `O[C@@H]1C[C@@H](C(c2ccccc2)c2ccccc2)OC[C@H]1NCc1ccccc1` (as salt: oxalate) [(−)-29d, (2S,4R,5R)-2-benzhydryl-5-benzylamino-tetrahydro-pyran 4-ol], the melting point – broadly, the temperature of the solid-liquid transition – fell in the range of 250 to 252 °C.
With `COc1ccc(CN[C@@H]2CO[C@H](C(c3ccccc3)c3ccccc3)C[C@H]2O)cc1` (as salt: oxalate) [(−)-29a, (2S,4R,5R)-2-benzhydryl-5-(4-methoxy-benzylamino)-tetrahydropyran-4-ol], the melting point was 230 to 232 °C.
On to `Fc1ccc(CCN[C@H]2CC[C@@H](C(c3ccccc3)c3ccccc3)OC2)cc1` (relative stereo) (as salt: oxalate) [Compound 16p, Cis-(6-benzhydryl-tetrahydropyran-3-yl)-[2-(4-fluoro-phenyl)-ethyl]-amine], for which the melting point lay within 240 to 242 °C.
The compound `Clc1ccc(CN[C@H]2CC[C@@H](C(c3ccccc3)c3ccccc3)OC2)cc1Cl` (relative stereo) (as salt: oxalate) [Compound 16i, Cis-(6-benzhydryl-tetrahydropyran-3-yl)-(3,4-dichloro-benzyl)-amine] gave a melting point of 251 to 252 °C.
Compound `c1ccc(CN[C@H]2CC[C@@H](C(c3ccccc3)c3ccccc3)OC2)cc1` (relative stereo) (as salt: oxalate) [Compound 16k, Cis-(6-benzhydryl-tetrahydropyran-3-yl)-benzyl-amine] had a melting point of 208 to 210 °C.
As for `Oc1ccc(CN[C@H]2CC[C@@H](C(c3ccccc3)c3ccccc3)OC2)cc1` (as salt: oxalate) [(−)-37a, cis-(3S,6S)-(6-benzhydryl-tetrahydropyran-3-yl)-(4-hydroxy-benzyl)-amine], the melting point lay within 136 to 138 °C.
Still for that read-out and setting: the same measure for `c1ccc(C(c2ccccc2)C2CCC(NCc3cc4ccccc4[nH]3)CO2)cc1` (stereo not drawn) (as salt: oxalate) [Compound 16g, Cis-(6-benzhydryl-tetrahydropyran-3-yl)-(2-indole-methyl)-amine]: 215 to 216 °C; for `Brc1ccc(CN[C@H]2CC[C@@H](C(c3ccccc3)c3ccccc3)OC2)cc1` (relative stereo) (as salt: oxalate) [Compound 16l, Cis-(6-benzhydryl-tetrahydropyran-3-yl)-(4-bromo-benzyl)-amine]: 250 to 252 °C; for `COc1ccc(CN[C@@H]2CO[C@H](C(c3ccccc3)c3ccccc3)C[C@H]2O)c(OC)c1` (as salt: oxalate) [(−)-29e, (2S,4R,5R)-2-benzhydryl-5-(2,4-dimethoxy-benzylamino)-tetrahydropyran-4-ol]: 208 to 210 °C.
The same measure, in the same setting: the same measure for `O[C@H]1C[C@H](C(c2ccccc2)c2ccccc2)OC[C@@H]1NCc1ccc(F)cc1` (as salt: oxalate) [(+)-29b, (2R,4S,5S)-2-benzhydryl-5-(4-fluoro-benzylamino)-tetrahydro-pyran-4-ol]: 223 to 225 °C; for `N#Cc1ccc(CN[C@H]2CC[C@@H](C(c3ccccc3)c3ccccc3)OC2)cc1` (relative stereo) (as salt: oxalate) [Compound 16c, Cis-(6-benzhydryl-tetrahydropyran-3-yl)-(4-cyano-benzyl)-amine]: 241 to 242 °C.
Same read-out and setting: then `COc1ccc(CN[C@H]2CC[C@@H](C(c3ccccc3)c3ccccc3)OC2)cc1` (relative stereo) (as salt: oxalate) [Compound 16e, Cis-(6-benzhydryl-tetrahydropyran-3-yl)-(4-methoxy-benzyl)-amine], with 215 to 217 °C.
Regarding `COc1ccc(CN[C@H]2CO[C@@H](C(c3ccccc3)c3ccccc3)C[C@@H]2O)cc1` (as salt: oxalate) [(+)-29a, (2R,4S,5S)-2-benzhydryl-5-(4-methoxy-benzylamino)-tetrahydro-pyran-4-ol], the melting point was in the range of 230 to 232 °C.
Compound `Ic1ccc(CN[C@H]2CC[C@@H](C(c3ccccc3)c3ccccc3)OC2)cc1` (relative stereo) (as salt: oxalate) [Compound 16m, Cis-(6-benzhydryl-tetrahydropyran-3-yl)-(4-iodo-benzyl)-amine] came in with a melting point of 243 to 244 °C.
In the case of `O[C@@H]1C[C@@H](C(c2ccccc2)c2ccccc2)OC[C@H]1NCCc1ccc(F)cc1` (as salt: oxalate) [(−)-29c, (2S,4R,5R)-2-benzhydryl-5-[2-(4-fluoro-phenyl)-ethylamino]-tetrahydropyran-4-ol], the melting point lay within 205 to 207 °C.
On the same count and under the same terms, the same measure for `O=[N+]([O-])c1ccc(CN[C@H]2CC[C@@H](C(c3ccccc3)c3ccccc3)OC2)cc1` (relative stereo) (as salt: oxalate) [Compound 16d, Cis-(6-benzhydryl-tetrahydropyran-3-yl)-(4-nitro-benzyl)-amine]: 236 to 238 °C; for `COc1ccc(CN[C@@H]2C[C@@H](C(c3ccccc3)c3ccccc3)OC[C@@H]2O)cc1` (as salt: oxalate) [(−)-29g, (3R,4R,6S)-6-benzhydryl-4-(4-methoxy-benzylamino)-tetrahydro-pyran-3-ol]: 234 to 235 °C; for `Fc1ccc(CN[C@H]2CCO[C@@H](C(c3ccccc3)c3ccccc3)C2)cc1` (relative stereo) (as salt: oxalate) [Compound 7a, cis-(2-benzhydryl-tetrahydropyran 4-yl)-(4-fluorobenzyl)-amine]: 177 to 181 °C.
`Oc1ccc(CN[C@@H]2CC[C@H](C(c3ccccc3)c3ccccc3)OC2)cc1` (as salt: oxalate) [(+)-37a, cis-(3R,6R)-(6-benzhydryl-tetrahydropyran-3-yl)-(4-hydroxy-benzyl)-amine] came in with a melting point of 136 to 138 °C.
Same read-out and setting: the same measure for `O[C@@H]1C[C@@H](C(c2ccccc2)c2ccccc2)OC[C@H]1NCc1ccc(F)cc1` (as salt: oxalate) [(−)-29b, (2S,4R,5R)-2-benzhydryl-5-(4-fluoro-benzylamino)-tetrahydro-pyran-4-ol]: 222 to 223 °C; for `Fc1ccc(CN[C@@H]2CCO[C@@H](C(c3ccccc3)c3ccccc3)C2)cc1` (relative stereo) (as salt: oxalate) [Compound 7b, trans-(2-benzhydryl-tetrahydropyran-4-yl)-(4-fluoro-benzyl)-amine]: 185 to 187 °C.
On to `Fc1ccc(CN[C@H]2CC[C@@H](C(c3ccccc3)c3ccccc3)OC2)cc1F` (relative stereo) (as salt: oxalate) [Compound 16j, Cis-(6-benzhydryl-tetrahydropyran-3-yl)-(3,4-difluoro-benzyl)-amine], for which the melting point was in the range of 234 to 235 °C.
On the same count and under the same terms, the same measure for `COc1cc(CN[C@@H]2CO[C@H](C(c3ccccc3)c3ccccc3)C[C@H]2O)cc(OC)c1` (as salt: oxalate) [(−)-29f, (2S,4R,5R)-2-benzhydryl-5-(3,5-dimethoxy-benzylamino)-tetrahydropyran-4-ol]: 245 to 247 °C; for `O[C@H]1C[C@H](C(c2ccccc2)c2ccccc2)OC[C@@H]1NCc1ccccc1` (as salt: oxalate) [(+)-29d, (2R,4S,5S)-2-benzhydryl-5-benzylamino-tetrahydro-pyran-4-ol]: 249 to 251 °C; for `N[C@H]1CC[C@@H](C(c2ccccc2)c2ccccc2)OC1` (relative stereo) (as salt: HCl) [Compound 15, Cis-(6-benzhydryl-tetrahydropyran-3-yl)-amine]: 260 to 261 °C.
Same read-out and setting: then `O[C@H]1C[C@H](C(c2ccccc2)c2ccccc2)OC[C@@H]1NCCc1ccc(F)cc1` (as salt: oxalate) [(+)-29c, (2R,4S,5S)-2-benzhydryl-5-[2-(4-fluoro-phenyl)-ethylamino]-tetrahydropyran-4-ol], with 203 to 205 °C; and `c1ccc(C(c2ccccc2)C2CCC(NCc3c[nH]c4ccccc34)CO2)cc1` (stereo not drawn) (as salt: oxalate) [Compound 16f, Cis-(6-benzhydryl-tetrahydropyran-3-yl)-(3-indole-methyl)-amine], with 177 to 179 °C.
Turning to `Fc1ccc(CN[C@H]2CC[C@@H](C(c3ccccc3)c3ccccc3)OC2)cc1` (relative stereo) (as salt: oxalate) [Compound 16b, Cis-(6-benzhydryl-tetrahydropyran-3-yl)-(4-fluoro-benzyl)-amine], the melting point was in the range of 229 to 230 °C.
